{"source": "patent US9987200B2", "about": "“Activated micro-bubble based root canal disinfection” (SyACT, LLP, priority 2014, dated 2018)", "key": {"[1]": {"conditions": "cited from earlier work"}, "bacterial biofilms": {"tested_on": "bacterial biofilms", "assay": "Laser confocal microscopy of treated root canals, live/dead bacteria (FIGS. 20-22)", "type": "cell-based", "conditions": "then sonic and light activation of the micro-bubble solution", "description": "FIGS. 21-22 show laser confocal microscopy images showing bacterial biofilms (and dead cells as red and viable cells are green).\nIn these photographs, active bacteria are shown in green and dead bacteria as shown in red. FIG. 20 contains photomicrographs of a control tooth."}, "[2]": {"assay": "Singlet oxygen release measured with 1,3-diphenylisobenzofuran (DPBF)", "type": "physicochemical", "conditions": "with sonic activation compared with no sonic activation (FIG. 11)", "protocol": "As noted above, when the light reaches the photosensitive compound, the photosensitive compound releases energy to convert the oxygen molecules to singlet oxygen. […] The singlet oxygen release was measured using 1, 3-diphenylisobenzofuran (DPBF). DPBF is a chemical used to study the degree of release of singlet oxygen; it is not actually part of the micro-bubble solution or the photosensitizing solution. As is known, DPBF undergoes bleaching with singlet oxygen and this can be calorimetrically quantified. […]\nFIG. 11 contains graphs showing singlet oxygen yield of methylene blue (on the left hand graph) and rose bengal (on the right hand graph) both with sonic activation (square data points) and without sonic activation (diamond data points). […] The substantial fall off in absorbance in the sonically activated samples (as compared to the non-activated samples) for both the methylene blue and the rose bengal show substantial increase in micro-bubble activity within the first few seconds of activation of the micro-bubble solution."}, "[3]": {"tested_on": "Enterococcus faecalis biofilms", "assay": "Confocal laser scanning microscopy of biofilms subjected to different treatments (FIG. 15)", "type": "cell-based", "conditions": "one week old E. faecalis biofilms; live green, dead red; light 660 nm", "description": "FIG. 15 contains in the first two columns, images showing the three-dimensional confocal laser scanning microscopy reconstruction of the Enterococcus faecalis biofilms subjected to different treatments (60×).\nThe first two columns of FIG. 15 contain images which show one week old bacterial biofilms of Enterococcus faecalis before and after treatment for the different groups. Each of the six images in the first two columns show active and dead bacteria, with the active bacteria being shown in green and the dead bacteria being shown in red. The two left-hand columns of FIG. 15 contains, images showing the three-dimensional confocal laser scanning microscopy reconstruction of the Enterococcus faecalis biofilms subjected to different treatments (60×). […] However, there active bacteria remain."}}}
{"compound": "Triton X-100", "values": [{"measurement": "Solubility", "setting": "[1]; at 25° C. in water, benzene, toluene, xylene, trichloroethylene, ethylene glycol, ethyl ether, ethanol, isopropanol, ethylene dichloride", "value": "soluble in all proportions"}, {"measurement": "Viscosity (Brookfield)", "setting": "[1]; at 25° C.", "value": 240, "unit": "cps"}]}
{"compound": "CN(C)c1ccc2nc3ccc(=[N+](C)C)cc-3sc2c1", "note": "[methylene blue]", "values": [{"measurement": "Active bacteria remaining in root canal", "setting": "bacterial biofilms; MB in a water carrier", "value": "substantially all of the active bacteria have been eliminated"}, {"measurement": "Active bacteria remaining in root canal", "setting": "bacterial biofilms; MB in polyethylene glycol, alcohol and water carrier solution", "value": "substantially all of the active bacteria have been eliminated"}, {"measurement": "Fall off in absorbance (singlet oxygen yield)", "setting": "[2]", "value": "falls off much more rapidly"}]}
{"compound": "OCl", "note": "[sodium hypochlorite]", "values": [{"measurement": "Active (live) bacteria remaining in biofilm", "setting": "[3]", "value": "kills (eliminates) nearly all of the active bacteria"}]}
{"compound": "O=C([O-])c1c(Cl)c(Cl)c(Cl)c(Cl)c1-c1c2cc(I)c(=O)c(I)c-2oc2c(I)c([O-])c(I)cc12.[Na+].[Na+]", "note": "[rose bengal]", "values": [{"measurement": "Fall off in absorbance (singlet oxygen yield)", "setting": "[2]", "value": "fell off much more quickly"}]}
